Measured values published in patent publication US6406908B1, “Vanilloid receptor” (Novartis AG, priority 1999, dated 2002).
Like-named read-outs stand apart in the source and are kept apart here. One block for each compound: values may come before it.

Legend:
Rat DRG neurones [1] = assay: 45Ca calcium uptake assay in primary cultures of DRG neurones; format: cell-based
Method: Primary cultures of adult DRG neurones are prepared according to standard protocols [Wood et al., J. Neuroscience 8:3208-3220 (1988)]. Cells are plated at a density of 2000 per well on 96 well view plates pre-coated with poly-ornithine and laminin and cultured in Hams F14 supplemented with 100 ng/ml NGF for four days. On the day of the assay, the cells are washed eight times in a Denley cell washer with calcium/magnesium free HBSS plus 10 mM HEPES, pH7.4. After washing the wells contain approximately 75 μl of buffer. […] For negative control, capsaicin is omitted. Samples are incubated at RT for 10 min, then washed four times with HBSS/10 mM HEPES pH 7.4. The remaining buffer is removed from the wells and replaced with 25 μl of 0.1% SDS. After about 10 min 200 μl of Microscint 40 scintillant is added and samples are counted on a Packard Topcount.

human vanilloid receptor = biological target: T1, human vanilloid receptor (Homo sapiens, UniProt Q8NER1); assay: Activation of human vanilloid receptor expressed in mammalian cells; format: cell-based
T1 construct: expressed in transfected cells

rVR1 = biological target: T2, rVR1 (Rattus norvegicus, UniProt O35433); assay: Aequorin luminescence assay, rVR1 in CHO cells; format: cell-based
T2 construct: expressed in transfected cells
Method: (§1) All the plates for use in a day are set up at the same time. The first plate is used in the assay after 2.5 h incubation with coelenterazine h. Subsequent plates are used at about 10 min intervals. […] At the start of the assay, the medium containing coelenterazine h is removed and replaced with 100 μl of HBSS buffered to pH 7.4 with 10 mM HEPES containing test compounds where appropriate. Cells are incubated for at least 10 min at RT. They are then placed in the measuring chamber of a luminometer (Wallac Microbeta Jet). Agonist is injected in a volume of 20 μl HBSS and the luminescence signal is collected for 20 sec.

hVR1 [2] = biological target: T3, hVR1 (Homo sapiens, UniProt Q8NER1); assay: Aequorin luminescence assay, hVR1 in CHO cells; format: cell-based
T3 construct: expressed in transfected cells
Method: as §1

hVR1 [3] = biological target: T3, hVR1; assay: Fluorometric Fluo-3 assay using the FLIPR, hVR1 in CHO cells; format: cell-based
Method: Cells resulting from Examples A1 or A2 are plated at a density of 50,000 cells/well in Costar Viewplates. The cells are incubated at 37° C. in a humidified atmosphere (5% CO2/95% air) for 24 h. Medium is removed by flicking the plates and replaced with 100 μl HBSS containing 2 μM Fluo-3, AM (Molecular Probes) in the presence of 2.5 mM probenicid (Sigma) and 0.02% pluronic acid (Molecular Probes). The cells are incubated at 37° C. in a humidified atmosphere (5% CO2/95% air) for 1 h. Plates are flicked to remove excess of Fluo-3, AM, washed twice with HBSS and refilled with 100 μl of HBSS containing screening compounds. Incubation in the presence of screening compounds lasts between 10 and 20 min. Plates are then placed in the cell plate stage of the FLIPR (Molecular Devices, Sunnyvale, Calif., USA). A baseline consisting in 5 measurements of 0.4 sec each (laser: excitation 488 nm at 0.6 W, CCD camera opening of 0.4 sec) is recorded.

Rat DRG neurones [4] = details: inhibition of capsaicin response; from Wood et al (1988); read-out: IC50 (nM) (Ca uptake assay) Rat DRG neurones; cited from earlier work
[5] = inhibition of capsaicin response, capsaicin 1 μM

T3 sequence (Q8NER1 whole entry): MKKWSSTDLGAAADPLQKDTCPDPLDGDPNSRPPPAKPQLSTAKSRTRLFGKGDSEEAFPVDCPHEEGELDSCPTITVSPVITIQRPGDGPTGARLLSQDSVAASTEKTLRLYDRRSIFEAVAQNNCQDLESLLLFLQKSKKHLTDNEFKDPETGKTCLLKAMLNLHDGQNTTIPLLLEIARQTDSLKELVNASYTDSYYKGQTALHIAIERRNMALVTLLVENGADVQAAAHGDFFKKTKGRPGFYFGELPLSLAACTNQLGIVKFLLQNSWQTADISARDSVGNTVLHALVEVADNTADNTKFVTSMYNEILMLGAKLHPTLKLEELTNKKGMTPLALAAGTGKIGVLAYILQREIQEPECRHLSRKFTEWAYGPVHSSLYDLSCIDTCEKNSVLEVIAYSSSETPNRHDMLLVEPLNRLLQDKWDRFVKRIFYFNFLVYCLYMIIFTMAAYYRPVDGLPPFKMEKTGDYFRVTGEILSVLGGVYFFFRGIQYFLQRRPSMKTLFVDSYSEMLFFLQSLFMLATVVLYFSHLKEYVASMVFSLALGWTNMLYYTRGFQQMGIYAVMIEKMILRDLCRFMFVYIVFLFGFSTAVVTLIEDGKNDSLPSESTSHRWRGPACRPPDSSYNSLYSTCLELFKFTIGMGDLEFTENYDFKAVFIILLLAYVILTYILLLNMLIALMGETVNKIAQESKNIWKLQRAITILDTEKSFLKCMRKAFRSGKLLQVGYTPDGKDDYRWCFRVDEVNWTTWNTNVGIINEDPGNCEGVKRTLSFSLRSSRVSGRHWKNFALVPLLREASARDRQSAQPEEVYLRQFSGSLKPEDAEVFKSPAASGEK
T1 sequence (Q8NER1 whole entry): as above
T2 sequence (O35433 whole entry): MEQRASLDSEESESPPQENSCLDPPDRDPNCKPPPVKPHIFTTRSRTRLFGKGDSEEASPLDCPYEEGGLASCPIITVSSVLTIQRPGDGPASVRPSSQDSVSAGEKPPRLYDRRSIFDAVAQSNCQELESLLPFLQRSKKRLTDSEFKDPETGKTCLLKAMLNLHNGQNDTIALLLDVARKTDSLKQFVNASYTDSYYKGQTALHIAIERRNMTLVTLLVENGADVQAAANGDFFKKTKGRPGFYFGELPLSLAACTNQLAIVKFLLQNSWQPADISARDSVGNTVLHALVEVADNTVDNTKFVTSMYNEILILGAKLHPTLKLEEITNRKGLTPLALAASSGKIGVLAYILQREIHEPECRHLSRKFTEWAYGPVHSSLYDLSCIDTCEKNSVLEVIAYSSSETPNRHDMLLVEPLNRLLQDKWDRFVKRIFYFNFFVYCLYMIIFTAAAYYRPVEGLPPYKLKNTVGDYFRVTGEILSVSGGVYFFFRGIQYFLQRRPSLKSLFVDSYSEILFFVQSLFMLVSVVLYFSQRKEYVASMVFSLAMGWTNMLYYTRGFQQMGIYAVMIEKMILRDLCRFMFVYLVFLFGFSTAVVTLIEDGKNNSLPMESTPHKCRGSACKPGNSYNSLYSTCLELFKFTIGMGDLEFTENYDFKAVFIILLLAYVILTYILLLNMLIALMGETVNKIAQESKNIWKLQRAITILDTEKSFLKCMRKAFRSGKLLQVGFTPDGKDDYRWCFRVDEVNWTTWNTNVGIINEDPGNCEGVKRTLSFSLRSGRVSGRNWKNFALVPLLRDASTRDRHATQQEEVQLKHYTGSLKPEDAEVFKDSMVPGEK

EC50 (Rat DRG neurones [1]; 10 min): 170 ± 19 nM
Activation of the human vanilloid receptor (human vanilloid receptor): activated by capsaicin
Structure (SMILES): COc1cc(CNC(=O)CCCC/C=C/C(C)C)ccc1O [Capsaicin]

IC50 (rVR1): 320 ± 110 nM
IC50 (hVR1 [2]): 120 ± 12 nM
IC50 (Rat DRG neurones [1]): 800 ± 40 nM
IC50 (hVR1 [3]): 130 ± 32 nM
Block of activation by capsaicin, temperatures greater than 42° C. and pH less than 5.5 (human vanilloid receptor): blocked substantially or completely
Structure (SMILES): Oc1cc2c(cc1O)CN(C(=S)NCCc1ccc(Cl)cc1)CCC2 [Cz, Capsazepine]

IC50 (rVR1; [5]): 18 ± 8.3 nM
IC50 (hVR1 [2]; [5]): 220 ± 32 nM
Blocking of capsaicin responses (hVR1 [2]; measured as in Example B1, stated generally for the assays): effective blocker of capsaicin responses
Structure (SMILES): N.N.N.N.N.N.N.N.N.N.N.N.N.N.[Cl-].[Cl-].[Cl-].[Cl-].[Cl-].[Cl-].[O-2].[O-2].[Ru+3].[Ru+3].[Ru+4] [Rr, Ruthenium red]
IC50 (Rat DRG neurones [4]): 50 nM
